According to patent US20020169157A1, “Selective protein tyrosine phosphatatase inhibitors” (priority 2000, published 2002):

Legend:
[1] = target: T1, protein tyrosine phosphatase 1B (PTP1B, amino acid residues 1-321) (Homo sapiens, UniProt P18031); test: Inhibition constant determination for protein tyrosine phosphatase 1B (pNPP hydrolysis); format: biochemical; settings: competitive Ki, pNPP substrate, +/− S.D.; read-out: Phosphatase Inhibition Constants (Kic) PTP1B
T1 construct: PTP1B, amino acid residues 1-321; made in house; host or cells: E. coli BL21 (DE3)
T1 sequence (P18031 1-321): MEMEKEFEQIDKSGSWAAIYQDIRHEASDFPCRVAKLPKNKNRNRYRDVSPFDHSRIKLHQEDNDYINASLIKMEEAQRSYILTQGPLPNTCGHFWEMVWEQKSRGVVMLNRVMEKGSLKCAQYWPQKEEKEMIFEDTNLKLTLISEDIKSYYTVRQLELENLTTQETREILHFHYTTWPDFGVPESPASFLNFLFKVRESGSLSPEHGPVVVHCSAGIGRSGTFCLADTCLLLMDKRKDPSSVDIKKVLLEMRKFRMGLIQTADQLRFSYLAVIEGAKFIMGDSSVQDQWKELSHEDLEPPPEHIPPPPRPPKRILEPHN
Procedure: Protein tyrosine phosphatase 1B activity was determined by measuring the rate of hydrolysis of a surrogate substrate, p-nitrophenyl phosphate (aka pNPP, C1907 Sigma, St. Louis, Mo.). The assay was carried out at room temperature in 96 well polypropylene or polyethylene plates in a total volume of 100 μL per well. Appropriate dilutions of the compounds were made in DMSO and then diluted ten fold with water. […] The reaction was initiated by adding 50 μL of diluted PTP1B diluted in 2× assay buffer containing 50 mM HEPES (pH=7.5), 300 mM NaCl and 0.2 mg/mL BSA. […] For each concentration of test compound (inhibitor) or DMSO control, the initial rates are used to fit the rectangular hyperbola of Michaelis-Menten by non-linear regression analysis (GraphPad Software Prism 3.0). The ratio of the apparent Km/Vmax vs. inhibitor concentration was plotted and the competitive Ki was calculated by linear regression to be the negative x-intercept. The uncompetitve Ki was similarly calculated from the x-intercept of the plot of the reciprocal of the apparent Vmax versus the inhibitor concentration.

[2] = target: T2, TC-PTP (Homo sapiens, UniProt P17706); test: Inhibition constant determination, selectivity panel: TCPTP (pNPP hydrolysis); format: biochemical; settings: for Ki: competitive Ki, pNPP substrate, +/− S.D., read-out: Phosphatase Inhibition Constants (Kic) TC-PTP; for selective for PTP1B over TCPTP: from Kic values of Table 1
T2 construct: chromatography of TCPTP (amino acid residues 1-283) was on Q-Sepharose-FF
T2 sequence (P17706 1-283): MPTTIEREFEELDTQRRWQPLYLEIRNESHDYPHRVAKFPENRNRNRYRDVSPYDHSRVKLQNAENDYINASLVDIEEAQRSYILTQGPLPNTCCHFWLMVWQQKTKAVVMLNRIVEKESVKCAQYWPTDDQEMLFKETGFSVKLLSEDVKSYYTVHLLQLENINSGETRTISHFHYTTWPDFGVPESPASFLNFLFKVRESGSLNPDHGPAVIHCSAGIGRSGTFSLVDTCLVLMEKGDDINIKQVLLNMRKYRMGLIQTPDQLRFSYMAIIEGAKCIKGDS
Procedure: Protein tyrosine phosphatase 1B activity was determined by measuring the rate of hydrolysis of a surrogate substrate, p-nitrophenyl phosphate (aka pNPP, C1907 Sigma, St. Louis, Mo.). The assay was carried out at room temperature in 96 well polypropylene or polyethylene plates in a total volume of 100 μL per well. Appropriate dilutions of the compounds were made in DMSO and then diluted ten fold with water. […] The reaction was initiated by adding 50 μL of diluted PTP1B diluted in 2× assay buffer containing 50 mM HEPES (pH=7.5), 300 mM NaCl and 0.2 mg/mL BSA. The phosphatase activity results in the formation of the colored product p-nitrophenol (pNP) which was continuously monitored at 405 nm every 30 seconds for 15 minutes using an appropriate plate reader. The absorbance at 405 nm was converted to nanomoles of pNP using a standard curve and the initial rate of pNP formation was calculated. For each concentration of test compound (inhibitor) or DMSO control, the initial rates are used to fit the rectangular hyperbola of Michaelis-Menten by non-linear regression analysis (GraphPad Software Prism 3.0). The ratio of the apparent Km/Vmax vs. inhibitor concentration was plotted and the competitive Ki was calculated by linear regression to be the negative x-intercept. The uncompetitve Ki was similarly calculated from the x-intercept of the plot of the reciprocal of the apparent Vmax versus the inhibitor concentration.
TCPTP used was either obtained commercially (catalog#752L New England Biolabs, 32 Tozer Rd, Beverly, Mass.) or as described for PTP1B. The purification of TCPTP differed from the purification of PTP1b in that chromatography of TCPTP (amino acid residues 1-283) was on Q-Sepharose-FF (Amersham Pharmacia Biotech) in 50 mM TRIS-HC1, pH 7.5, 2 mM DTT, 10% (v/v) glycerol, and was eluted with a 3 CV gradient of 0-300 mM NaCl in the same buffer. Fractions which contained TCPTP were selected and pooled based on SDS-PAGE. They were dialyzed versus 40 mM sodium phosphate, pH 7.5, 1 M ammonium sulfate, 10% (v/v) glycerol, 2 mM DTT, 1 mM sodium azide, applied to Phenyl Sepharose FF (Amersham Pharmacia Biotech), washed with 2.5 CV of the same buffer, and eluted with a 7 CV gradient of 1M to 0M NaCl in the same buffer. Fractions were assayed, pooled, frozen and stored as described for PTP1B.
The Kic and Kiu values are calculated as described for PTP1B. The assays were performed as described for PTP-1B except for the following changes. All the phosphatases except PP2B use the same 2× assay buffer as PTP1B. […] The concentrations of pNPP present in 40 ul were the same for TCPTP, CD45, LAR and PTP1B.

[3] = target: T3, PP2B (Bos taurus, UniProt P48452); test: Inhibition constant determination, selectivity panel: PP2B (pNPP hydrolysis); format: biochemical, Bovine; settings: competitive Ki, pNPP substrate, TRIS-HCl pH 8.6 buffer; read-out: Phosphatase Inhibition Constants (Kic) PP2B
T3 construct: purchased Sigma C1907
Procedure: (§1) Protein tyrosine phosphatase 1B activity was determined by measuring the rate of hydrolysis of a surrogate substrate, p-nitrophenyl phosphate (aka pNPP, C1907 Sigma, St. Louis, Mo.). The assay was carried out at room temperature in 96 well polypropylene or polyethylene plates in a total volume of 100 μL per well. Appropriate dilutions of the compounds were made in DMSO and then diluted ten fold with water. […] The reaction was initiated by adding 50 μL of diluted PTP1B diluted in 2× assay buffer containing 50 mM HEPES (pH=7.5), 300 mM NaCl and 0.2 mg/mL BSA. The phosphatase activity results in the formation of the colored product p-nitrophenol (pNP) which was continuously monitored at 405 nm every 30 seconds for 15 minutes using an appropriate plate reader. The absorbance at 405 nm was converted to nanomoles of pNP using a standard curve and the initial rate of pNP formation was calculated. […] The ratio of the apparent Km/Vmax vs. inhibitor concentration was plotted and the competitive Ki was calculated by linear regression to be the negative x-intercept. The uncompetitve Ki was similarly calculated from the x-intercept of the plot of the reciprocal of the apparent Vmax versus the inhibitor concentration. […]
(§2) The Kic and Kiu values are calculated as described for PTP1B. […]

[4] = target: T4, LAR (Homo sapiens, UniProt P10586); test: Inhibition constant determination, selectivity panel: LAR (pNPP hydrolysis); format: biochemical; settings: competitive Ki, pNPP substrate; read-out: Phosphatase Inhibition Constants (Kic) LAR
T4 construct: purchased New England Biolabs P0750L
T4 sequence (P10586 1301-1639 limits assumed): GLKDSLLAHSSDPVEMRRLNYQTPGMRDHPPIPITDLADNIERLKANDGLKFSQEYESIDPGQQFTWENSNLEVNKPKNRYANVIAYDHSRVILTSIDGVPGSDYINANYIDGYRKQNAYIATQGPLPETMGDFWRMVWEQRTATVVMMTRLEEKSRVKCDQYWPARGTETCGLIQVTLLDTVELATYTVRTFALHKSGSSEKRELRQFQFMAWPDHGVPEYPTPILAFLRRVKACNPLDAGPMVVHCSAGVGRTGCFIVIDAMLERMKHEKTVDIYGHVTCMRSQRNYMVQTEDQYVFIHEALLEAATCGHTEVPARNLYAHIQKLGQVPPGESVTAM
Procedure: as §1, §2

[5] = target: T5, CD45 (Homo sapiens, UniProt P08575); test: Inhibition constant determination, selectivity panel: CD45 (pNPP hydrolysis); format: biochemical; settings: competitive Ki, pNPP substrate; read-out: Phosphatase Inhibition Constants (Kic) CD45
T5 construct: purchased Biomol Research Laboratories SE-135
T5 sequence (P08575 609-1306 limits assumed): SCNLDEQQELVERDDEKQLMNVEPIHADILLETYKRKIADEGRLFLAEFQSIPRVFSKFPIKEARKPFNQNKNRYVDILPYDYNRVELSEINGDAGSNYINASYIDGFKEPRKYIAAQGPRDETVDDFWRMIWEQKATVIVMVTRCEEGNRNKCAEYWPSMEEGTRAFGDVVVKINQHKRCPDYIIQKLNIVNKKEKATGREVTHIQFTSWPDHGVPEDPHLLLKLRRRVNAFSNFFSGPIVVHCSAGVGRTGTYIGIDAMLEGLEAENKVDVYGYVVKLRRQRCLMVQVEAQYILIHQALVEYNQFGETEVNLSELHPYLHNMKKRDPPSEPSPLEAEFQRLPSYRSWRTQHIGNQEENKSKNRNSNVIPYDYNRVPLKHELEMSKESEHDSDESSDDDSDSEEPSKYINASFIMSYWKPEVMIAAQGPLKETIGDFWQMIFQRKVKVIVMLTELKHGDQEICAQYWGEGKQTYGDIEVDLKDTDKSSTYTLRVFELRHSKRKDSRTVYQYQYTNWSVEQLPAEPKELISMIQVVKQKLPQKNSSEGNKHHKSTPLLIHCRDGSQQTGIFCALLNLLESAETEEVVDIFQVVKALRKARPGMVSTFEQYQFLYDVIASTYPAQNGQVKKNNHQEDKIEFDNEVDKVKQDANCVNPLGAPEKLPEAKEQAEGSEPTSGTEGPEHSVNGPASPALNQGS
Procedure: as §1, §2

[6] = target: T6, SHP-2 (full length) (Homo sapiens, UniProt Q06124); test: Inhibition constant determination, selectivity panel: SHP-2 (pNPP hydrolysis); format: biochemical; settings: competitive Ki, pNPP substrate; read-out: Phosphatase Inhibition Constants (Kic) SHP-2
T6 construct: SHP-2 (full length) was expressed in from E. coli; made in house; host or cells: E. coli
T6 sequence (Q06124 1-593): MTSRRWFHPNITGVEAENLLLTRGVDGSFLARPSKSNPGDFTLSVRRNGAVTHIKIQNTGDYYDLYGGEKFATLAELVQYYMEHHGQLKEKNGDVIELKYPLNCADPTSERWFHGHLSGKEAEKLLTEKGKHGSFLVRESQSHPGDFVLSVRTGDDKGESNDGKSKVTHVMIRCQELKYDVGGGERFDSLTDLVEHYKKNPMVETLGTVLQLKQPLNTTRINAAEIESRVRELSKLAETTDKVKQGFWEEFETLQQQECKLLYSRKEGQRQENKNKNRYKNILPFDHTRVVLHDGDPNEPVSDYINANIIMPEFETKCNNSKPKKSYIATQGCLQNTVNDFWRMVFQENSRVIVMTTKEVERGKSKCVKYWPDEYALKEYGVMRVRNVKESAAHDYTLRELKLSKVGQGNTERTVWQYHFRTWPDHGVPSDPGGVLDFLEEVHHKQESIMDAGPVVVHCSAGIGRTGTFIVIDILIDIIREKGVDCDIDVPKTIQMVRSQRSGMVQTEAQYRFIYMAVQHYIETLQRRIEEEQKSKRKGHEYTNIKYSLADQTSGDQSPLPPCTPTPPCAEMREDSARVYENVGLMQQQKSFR
Procedure: (§3) Protein tyrosine phosphatase 1B activity was determined by measuring the rate of hydrolysis of a surrogate substrate, p-nitrophenyl phosphate (aka pNPP, C1907 Sigma, St. Louis, Mo.). The assay was carried out at room temperature in 96 well polypropylene or polyethylene plates in a total volume of 100 μL per well. Appropriate dilutions of the compounds were made in DMSO and then diluted ten fold with water. […] The reaction was initiated by adding 50 μL of diluted PTP1B diluted in 2× assay buffer containing 50 mM HEPES (pH=7.5), 300 mM NaCl and 0.2 mg/mL BSA. The phosphatase activity results in the formation of the colored product p-nitrophenol (pNP) which was continuously monitored at 405 nm every 30 seconds for 15 minutes using an appropriate plate reader. The absorbance at 405 nm was converted to nanomoles of pNP using a standard curve and the initial rate of pNP formation was calculated. […] The ratio of the apparent Km/Vmax vs. inhibitor concentration was plotted and the competitive Ki was calculated by linear regression to be the negative x-intercept. The uncompetitve Ki was similarly calculated from the x-intercept of the plot of the reciprocal of the apparent Vmax versus the inhibitor concentration.
as §2

[7] = target: T7, CDC25c (fusion with glutathione-S-transferase) (Homo sapiens, UniProt P30307); test: Inhibition constant determination, selectivity panel: Cdc25c (pNPP hydrolysis); format: biochemical; settings: competitive Ki, pNPP substrate; read-out: Phosphatase Inhibition Constants (Kic) Cdc25c
T7 construct: GST (glutathione-S-transferase); made in house; host or cells: E. coli
T7 sequence (P30307 1-473): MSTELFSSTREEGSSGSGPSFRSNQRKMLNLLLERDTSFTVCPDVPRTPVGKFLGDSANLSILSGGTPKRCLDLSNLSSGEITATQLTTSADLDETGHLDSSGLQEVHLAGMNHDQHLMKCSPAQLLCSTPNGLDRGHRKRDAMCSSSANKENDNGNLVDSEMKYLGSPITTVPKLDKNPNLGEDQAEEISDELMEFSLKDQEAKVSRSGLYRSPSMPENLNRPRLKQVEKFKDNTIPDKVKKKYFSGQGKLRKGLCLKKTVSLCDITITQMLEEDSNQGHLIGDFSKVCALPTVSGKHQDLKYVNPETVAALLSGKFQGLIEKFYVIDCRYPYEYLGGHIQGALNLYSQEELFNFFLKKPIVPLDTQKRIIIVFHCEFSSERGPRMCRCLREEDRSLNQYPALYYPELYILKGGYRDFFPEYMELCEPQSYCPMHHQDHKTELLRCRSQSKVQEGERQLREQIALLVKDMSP
Procedure: as §3, §2

T3 sequence (P63099 2-170 partner limits assumed, other chains not shown): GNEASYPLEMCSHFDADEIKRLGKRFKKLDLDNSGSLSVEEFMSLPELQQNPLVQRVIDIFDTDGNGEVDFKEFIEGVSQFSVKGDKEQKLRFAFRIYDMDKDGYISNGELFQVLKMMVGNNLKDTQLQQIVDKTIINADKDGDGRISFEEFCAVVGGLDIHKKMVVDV

SMILES | Ki [1] [µM] | Ki [2] [µM] | selective for PTP1B over TCPTP [2] | Ki [3] [µM] | Ki [4] [µM] | Ki [5] [µM] | Ki [6] [µM] | Ki [7] [µM]
COC(=O)c1c(O)cccc1OCCCCNC(=O)CCc1ccc(NC(=O)C(=O)O)c(C(=O)O)c1 [Example 52, 2-[(carboxycarbonyl)amino]-5-[3-({4-[3-hydroxy-2-(methoxycarbonyl)phenoxy]butyl}amino)-3-oxopropyl]benzoic acid] | 2.7 | 38.2 | at least 14 fold |  |  |  |  | 
CCc1cc(C[C@H](NC(C)=O)C(=O)NCCCCC(=O)N[C@@H](CCSC)C(=O)O)ccc1N(C(=O)C(=O)O)c1ccccc1C(=O)O [Example 3, N-{5-[(N-acetyl-4-[(carboxycarbonyl)(2-carboxyphenyl)amino]-3-ethylphenylalanyl)amino]pentanoyl}-L-methionine] |  |  |  | > 200 | 5 | > 200 | 17 | > 200
CCC(CN(C(=O)C(=O)O)c1ccc(C[C@H](NC(=O)OC(C)(C)C)C(=O)NCCCCOc2cccc(O)c2C(=O)OC)cc1)C(=O)O (stereo partly drawn) [Example 36, Methyl 2-(4-{[N-(tert-butoxycarbonyl)-4-[(2-carboxybutyl)(carboxycarbonyl)amino]phenylalanyl]amino}butoxy)-6-hydroxybenzoate] | 1.3 | 7.9 | at least 6 fold |  |  |  |  | 
CCc1cc(C[C@H](NC(C)=O)C(=O)NCCCCOc2cccc(O)c2C(=O)OC)ccc1N(C(=O)C(=O)O)c1ccccc1C(=O)O [Example 13, Methyl 2-{4-[(N-acetyl-4-[(carboxycarbonyl)(2-carboxyphenyl)amino]-3-ethylphenylalanyl)amino]butoxy}-6-hydroxybenzoate] |  | 0.57 |  | > 200 | 4.6 | > 200 | 14.2 | > 200
COC(=O)c1c(O)cccc1OCCCCNC(=O)[C@H](Cc1ccc(NC(=O)C(=O)O)cc1)NC(=O)OC(C)(C)C [Example 45, Methyl 2-(4-{[4-(carboxycarbonyl)amino-N-(tert-butoxycarbonyl)phenylalanyl]amino}butoxy)-6-hydroxybenzoate] |  | 141 |  |  |  |  |  | 
